Measured values as given in patent US10881060B2, “Endophytes and related methods” (Agriculture Victoria Services PTY LTD, priority 2010, dated 2021).

Tested on: N. lolii (strain ST) mycelia
Assay: Colchicine kill curve of endophyte mycelia
Format: cell-based
Details: grown 21 days
Method: Experiments were conducted to determine the range of colchicine concentrations in which the mycelia of the fungal endophyte N. lolii (strain ST) would grow successfully. Mycelia were grown in colchicine concentrations ranging from 0% to 1% for 21 days and monitored for growth (FIG. 15). At greater than or equal to 0.2% colchicine mycelium growth halted whereas at 0.1% or less colchicine mycelium growth was prolific.

With COc1cc2c(c(OC)c1OC)-c1ccc(OC)c(=O)cc1[C@@H](NC(C)=O)CC2 [colchicine] the “Colchicine concentration at which mycelium growth halted” value was “greater than or equal to 0.2%” and the “Colchicine concentration at which mycelium growth was prolific” value was ≤ 0.1%.
